pIC50: −log10 of the molar value.
Molecular target: (recombinant) catalytic domain of human Bub1 (amino acids 704-1085) (Homo sapiens (Human), UniProt O43683)
Test: Bub1 kinase assay (TR-FRET)
Assay type: biochemical
Conditions: ATP 10 μM final, peptide substrate 1 μM final, 60 min at 22° C., read-out: Biological Assay: Bub1 kinase assay median IC50
Method in brief: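 Compounds were serially diluted 1:3.4 from 2 mM DMSO stocks and incubated with the enzyme reaction for 60 min at 22° C. The reaction was stopped with EDTA, and biotinylated peptide phosphorylation was read by TR-FRET using Eu anti-mouse IgG, anti-phosphoserine antibody and streptavidin-XL665. IC50 was fitted by 4-parameter logistic to inhibition normalized to no-inhibitor and no-enzyme controls.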

Sequence of (recombinant) catalytic domain of human Bub1 (amino acids 704-1085) (O43683 704-1085): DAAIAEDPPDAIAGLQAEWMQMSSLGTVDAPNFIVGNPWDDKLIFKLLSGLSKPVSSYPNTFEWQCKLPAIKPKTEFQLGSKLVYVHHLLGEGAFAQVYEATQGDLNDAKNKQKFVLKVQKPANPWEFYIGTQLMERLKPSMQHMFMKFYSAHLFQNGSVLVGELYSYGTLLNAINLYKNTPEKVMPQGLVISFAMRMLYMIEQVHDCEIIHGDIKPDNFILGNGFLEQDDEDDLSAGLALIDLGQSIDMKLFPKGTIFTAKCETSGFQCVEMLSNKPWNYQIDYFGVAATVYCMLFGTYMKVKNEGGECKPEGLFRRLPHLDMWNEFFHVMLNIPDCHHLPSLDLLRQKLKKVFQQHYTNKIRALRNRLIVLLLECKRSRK

| SMILES | pIC50 |
| --- | --- |
| C[C@@H](C(=O)Nc1cc(-c2[nH]c3c(c2Nc2ccccc2)C(=O)CCC3)ccn1)N(C)C(=O)OC(C)(C)C [Example 303, tert-butyl methyl[(2S)-1-oxo-1-({4-[4-oxo-3-(phenylamino)-4,5,6,7-tetrahydro-1H-indol-2-yl]pyridin-2-yl}amino)propan-2-yl]carbamate] | 5.85 |
| CN[C@@H](C)C(=O)Nc1cc(-c2[nH]c3c(c2Nc2ccccc2)C(=O)CCC3)ccn1 [Example 304, N^2-methyl-N-{4-[4-oxo-3-(phenylamino)-4,5,6,7-tetrahydro-1H-indol-2-yl]pyridin-2-yl}-L-alaninamide] | 6.76 |
| CNC(C)(C)C(=O)Nc1cc(-c2[nH]c3c(c2Nc2ccccc2)C(=O)CCC3)ccn1 [Example 306, N^2,2-dimethyl-N-{4-[4-oxo-3-(phenylamino)-4,5,6,7-tetrahydro-1H-indol-2-yl]pyridin-2-yl}alaninamide] | 5.40 |
| CN(C)CC(=O)Nc1cc(-c2[nH]c3c(c2Nc2ccccc2)C(=O)CCC3)ccn1 [Example 307, N^2,N^2;-dimethyl-N-{4-[4-oxo-3-(phenylamino)-4,5,6,7-tetrahydro-1H-indol-2-yl]pyridin-2-yl}glycinamide] | 6.68 |
| O=C(CN1CCCC1)Nc1cc(-c2[nH]c3c(c2Nc2ccccc2)C(=O)CCC3)ccn1 [Example 308, N-{4-[4-oxo-3-(phenylamino)-4,5,6,7-tetrahydro-1H-indol-2-yl]pyridin-2-yl}-2-(pyrrolidin-1-yl)acetamide] | 6.63 |
| CN1CCCC1C(=O)Nc1cc(-c2[nH]c3c(c2Nc2ccccc2)C(=O)CCC3)ccn1 (centres unmarked) [Example 309, 1-methyl-N-{4-[4-oxo-3-(phenylamino)-4,5,6,7-tetrahydro-1H-indol-2-yl]pyridin-2-yl}-prolinamide] | 6.62 |
| CN1C(=O)CCC1C(=O)Nc1cc(-c2[nH]c3c(c2Nc2ccccc2)C(=O)CCC3)ccn1 (centres unmarked) [Example 310, 1-methyl-5-oxo-N-{4-[4-oxo-3-(phenylamino)-4,5,6,7-tetrahydro-1H-indol-2-yl]pyridin-2-yl}-prolinamide] | 6.90 |
| O=C1CCC(C(=O)Nc2cc(-c3[nH]c4c(c3Nc3ccccc3)C(=O)CCC4)ccn2)N1 (centres unmarked) [Example 311, 5-oxo-N-{4-[4-oxo-3-(phenylamino)-4,5,6,7-tetrahydro-1H-indol-2-yl]pyridin-2-yl}-prolinamide] | 7.39 |
| COC(=O)Nc1cc(-c2[nH]c3c(c2Nc2cccc(F)c2)C(=O)CCC3)ccn1 [Example 312, methyl (4-{3-[(3-fluorophenyl)amino]-4-oxo-4,5,6,7-tetrahydro-1H-indol-2-yl}pyridin-2-yl)carbamate] | 7.70 |
| O=C1CCCc2[nH]c(-c3ccnc(NC(=O)C4CC4)c3)c(Nc3ccc(F)cc3)c21 [Example 314, N-(4-{3-[(4-fluorophenyl)amino]-4-oxo-4,5,6,7-tetrahydro-1H-indol-2-yl}pyridin-2-yl)cyclopropanecarboxamide] | 7.32 |
| CC(=O)Nc1cc(-c2[nH]c3c(c2Nc2ccc(F)c(F)c2)C(=O)CCC3)ccn1 [Example 315, N-(4-{3-[(3,4-difluorophenyl)amino]-4-oxo-4,5,6,7-tetrahydro-1H-indol-2-yl}pyridin-2-yl)acetamide] | 7.00 |
| O=C1CCCc2[nH]c(-c3ccnc(NC(=O)C4CC4)c3)c(Nc3ccc(F)c(F)c3)c21 [Example 316, N-(4-{3-[(3,4-difluorophenyl)amino]-4-oxo-4,5,6,7-tetrahydro-1H-indol-2-yl}pyridin-2-yl)cyclopropanecarboxamide] | 7.08 |
| CC(=O)Nc1cc(-c2[nH]c3c(c2Nc2ccccc2)C(=O)CC(C(C)C)C3)ccn1 (centres unmarked) [Example 317, N-{4-[4-oxo-3-(phenylamino)-6-(propan-2-yl)-4,5,6,7-tetrahydro-1H-indol-2-yl]pyridin-2-yl}acetamide] | 7.96 |
| CC(C)C1CC(=O)c2c([nH]c(-c3ccnc(NC(=O)C4CC4)c3)c2Nc2ccccc2)C1 (centres unmarked) [Example 318, N-{4-[4-oxo-3-(phenylamino)-6-(propan-2-yl)-4,5,6,7-tetrahydro-1H-indol-2-yl]pyridin-2-yl}cyclopropanecarboxamide] | 8.01 |
| CC(=O)Nc1cc(-c2[nH]c3c(c2Nc2cccc(F)c2)C(=O)CC(C(C)C)C3)ccn1 (centres unmarked) [Example 319, N-{4-[3-[(3-fluorophenyl)amino]-4-oxo-6-(propan-2-yl)-4,5,6,7-tetrahydro-1H-indol-2-yl]pyridin-2-yl}acetamide] | 8.06 |
| CC(C)C1CC(=O)c2c([nH]c(-c3ccnc(NC(=O)C4CC4)c3)c2Nc2cccc(F)c2)C1 (centres unmarked) [Example 320, N-{4-[3-[(3-fluorophenyl)amino]-4-oxo-6-(propan-2-yl)-4,5,6,7-tetrahydro-1H-indol-2-yl]pyridin-2-yl}cyclopropanecarboxamide] | 8.09 |
| CC(=O)Nc1cc(-c2[nH]c3c(c2Nc2ccc(F)cc2)C(=O)CC(C(C)C)C3)ccn1 (centres unmarked) [Example 321, N-{4-[3-[(4-fluorophenyl)amino]-4-oxo-6-(propan-2-yl)-4,5,6,7-tetrahydro-1H-indol-2-yl]pyridin-2-yl}acetamide] | 7.95 |
| CC(C)C1CC(=O)c2c([nH]c(-c3ccnc(NC(=O)C4CC4)c3)c2Nc2ccc(F)cc2)C1 (centres unmarked) [Example 322, N-{4-[3-[(4-fluorophenyl)amino]-4-oxo-6-(propan-2-yl)-4,5,6,7-tetrahydro-1H-indol-2-yl]pyridin-2-yl}cyclopropanecarboxamide] | 7.90 |

| SMILES | pIC50 |
| --- | --- |
| CC(=O)Nc1cc(-c2[nH]c3c(c2Nc2ccc(F)c(F)c2)C(=O)CC(C(C)C)C3)ccn1 (centres unmarked) [Example 323, N-{4-[3-[(3,4-difluorophenyl)amino]-4-oxo-6-(propan-2-yl)-4,5,6,7-tetrahydro-1H-indol-2-yl]pyridin-2-yl}acetamide] | 7.67 |
| CC(C)C1CC(=O)c2c([nH]c(-c3ccnc(NC(=O)C4CC4)c3)c2Nc2ccc(F)c(F)c2)C1 (centres unmarked) [Example 324, N-{4-[3-[(3,4-difluorophenyl)amino]-4-oxo-6-(propan-2-yl)-4,5,6,7-tetrahydro-1H-indol-2-yl]pyridin-2-yl}cyclopropanecarboxamide] | 7.58 |
| COCC(=O)Nc1cc(-c2[nH]c3c(c2Nc2ccccc2)C(=O)CCC3)ccn1 [Example 325, 2-methoxy-N-{4-[4-oxo-3-(phenylamino)-4,5,6,7-tetrahydro-1H-indol-2-yl]pyridin-2-yl}acetamide] | 7.70 |
| COC(C)(C)C(=O)Nc1cc(-c2[nH]c3c(c2Nc2ccccc2)C(=O)CCC3)ccn1 [Example 326, 2-methoxy-2-methyl-N-{4-[4-oxo-3-(phenylamino)-4,5,6,7-tetrahydro-1H-indol-2-yl]pyridin-2-yl}propanamide] | 6.22 |
| CC(C)(O)C(=O)Nc1cc(-c2[nH]c3c(c2Nc2ccccc2)C(=O)CCC3)ccn1 [Example 327, 2-hydroxy-2-methyl-N-{4-[4-oxo-3-(phenylamino)-4,5,6,7-tetrahydro-1H-indol-2-yl]pyridin-2-yl}propanamide] | 6.55 |
| CCOC(C)(C)C(=O)Nc1cc(-c2[nH]c3c(c2Nc2ccccc2)C(=O)CCC3)ccn1 [Example 328] | 6.28 |
| COC(C)C(=O)Nc1cc(-c2[nH]c3c(c2Nc2ccccc2)C(=O)CCC3)ccn1 (centres unmarked) [Example 329] | 7.18 |
| CCCOCC(=O)Nc1cc(-c2[nH]c3c(c2Nc2ccccc2)C(=O)CCC3)ccn1 [Example 330, N-{4-[4-oxo-3-(phenylamino)-4,5,6,7-tetrahydro-1H-indol-2-yl]pyridin-2-yl}-2-propoxyacetamide] | 8.11 |
| CC(C)COCC(=O)Nc1cc(-c2[nH]c3c(c2Nc2ccccc2)C(=O)CCC3)ccn1 [Example 331, 2-(2-methylpropoxy)-N-{4-[4-oxo-3-(phenylamino)-4,5,6,7-tetrahydro-1H-indol-2-yl]pyridin-2-yl}acetamide] | 7.89 |
| CCCCOCC(=O)Nc1cc(-c2[nH]c3c(c2Nc2ccccc2)C(=O)CCC3)ccn1 [Example 333, 2-butoxy-N-{4-[4-oxo-3-(phenylamino)-4,5,6,7-tetrahydro-1H-indol-2-yl]pyridin-2-yl}acetamide] | 8.13 |
| CCOCC(=O)Nc1cc(-c2[nH]c3c(c2Nc2ccccc2)C(=O)CCC3)ccn1 [Example 334, 2-ethoxy-N-{4-[4-oxo-3-(phenylamino)-4,5,6,7-tetrahydro-1H-indol-2-yl]pyridin-2-yl}acetamide] | 8.03 |
| C=CCOCC(=O)Nc1cc(-c2[nH]c3c(c2Nc2ccccc2)C(=O)CCC3)ccn1 [Example 335, N-{4-[4-oxo-3-(phenylamino)-4,5,6,7-tetrahydro-1H-indol-2-yl]pyridin-2-yl}-2-(prop-2-en-1-yloxy)acetamide] | 8.00 |
| C#CCOCC(=O)Nc1cc(-c2[nH]c3c(c2Nc2ccccc2)C(=O)CCC3)ccn1 [Example 336, N-{4-[4-oxo-3-(phenylamino)-4,5,6,7-tetrahydro-1H-indol-2-yl]pyridin-2-yl}-2-(prop-2-yn-1-yloxy)acetamide] | 8.07 |
| O=C(COc1ccccc1)Nc1cc(-c2[nH]c3c(c2Nc2ccccc2)C(=O)CCC3)ccn1 [Example 337, N-{4-[4-oxo-3-(phenylamino)-4,5,6,7-tetrahydro-1H-indol-2-yl]pyridin-2-yl}-2-phenoxyacetamide] | 7.64 |
| O=C(COc1cccc(F)c1)Nc1cc(-c2[nH]c3c(c2Nc2ccccc2)C(=O)CCC3)ccn1 [Example 338, 2-(3-fluorophenoxy)-N-{4-[4-oxo-3-(phenylamino)-4,5,6,7-tetrahydro-1H-indol-2-yl]pyridin-2-yl}acetamide] | 7.50 |
| O=C(COc1ccccc1F)Nc1cc(-c2[nH]c3c(c2Nc2ccccc2)C(=O)CCC3)ccn1 [Example 339, 2-(2-fluorophenoxy)-N-{4-[4-oxo-3-(phenylamino)-4,5,6,7-tetrahydro-1H-indol-2-yl]pyridin-2-yl}acetamide] | 7.40 |
| O=C(COCc1ccccc1)Nc1cc(-c2[nH]c3c(c2Nc2ccccc2)C(=O)CCC3)ccn1 [Example 340, 2-(benzyloxy)-N-{4-[4-oxo-3-(phenylamino)-4,5,6,7-tetrahydro-1H-indol-2-yl]pyridin-2-yl}acetamide] | 8.14 |

From patent US10428044B2, “3-amino-1,5,6,7-tetrahydro-4H-indol-4-ones” (Bayer Pharma Aktiengesellschaft, priority 2014, dated 2019)
